In experiment [1] the test system is secondary leg lymphedema. The experiment is described as follows: study of ubenimex in patients with secondary leg lymphedema. Format: in vivo, human. Conditions: oral 150 mg three times daily, 6-month treatment period. As to the method:
A study is conducted for treatment of patients with acquired lymphedema of the lower extremities with ubenimex. In this study, ubenimex is evaluated over a 6-month treatment period to determine the effect on dermal thickness and other efficacy measures in patients with secondary leg lymphedema. The efficacy, safety and tolerability of ubenimex in this patient population is characterized. Adult male and female subjects are enrolled with a confirmed diagnosis of Stage II or greater secondary leg lymphedema, based on a positive lymphoscintigraphy (LSG) study of the affected leg. At least 20 individuals are enrolled in each of the treatment and placebo arm of the trial. Individuals are given oral 150 mg ubenimex three times daily for a total daily dose of 450 mg. The drug and placebo are provided in a capsule form. Efficacy assessments include skin thickness (as measured by skinfold calipers), leg volume (as measured by standardized tape measure), bioimpedance (as measured by the […]) to measure 4-limb bioimpedance to determine extracellular fluid volume), and skin biopsy results (as measured by 6-mm skin punch biopsy samples to assess skin thickness and architecture (e.g., presence of hyperkeratosis, dermal collagen, and adipose deposition).

Experiment [2] has as its system LTB4. The experiment is described as follows: serum LTB4 levels in lymphedema mice. The settings on record: therapies initiated on d3, assessed on d24. Format: in vivo, mouse. The protocol: (§1) All small molecule drugs were administered through daily intraperitoneal injection.
Quantification of LTB4, PGE2 and S1P with LC-MS/MS. Briefly, LTB4, PGE2 and S1P were separated from serum with an ACE reverse phase C18 HPLC column. Formic acid 0.5% in 5 mM NH4Ac (A) and formic acid 0.5% in acetonitrile/water (9/1) (B) were used as the mobile phase. […] The internal standard of this method was Carbutamide. The quantification limit was 1 ng/ml. The calibration range was 1-2000 ng/ml.

Experiment [3] deals with LEC S1pr1−/− mice. Kind of experiment: lymphedema surgery in LEC S1pr1-/- mice. Format: in vivo, mouse. The text has this: To generate lymphatic endothelial specific tdTomato reporter mice (Prox1-Cre-ER-tdTomato), Prox1-Cre-ER mice were crossed with tdTomato mice. To create lymphatic endothelial cell specific Notch1 or S1pr1 conditional knockouts, Prox1-Cre-ER mice were crossed with Notch1loxp/loxp or S1pr1loxp/loxp mice. Mice with Prox1-Cre-ER and both target alleles floxed by Prox1-Cre-ER/Notch1^loxp/loxp or Prox1-Cre-ER/S1pr1^loxp/loxp were considered to be either lymphatic endothelial cell-specific Notch1 knockout (LEC Notch1−/−) or S1pr1 knockout (LEC S1pr1^−/−), respectively. Mice expressing Prox1-Cre-ER were used as WT controls. […] Cre-mediated gene knockout efficiency was evaluated by enumerating Notch1- or S1PR1-expressing lymphatic endothelial cells or by qRT-PCR measurements of Notch1 or S1pr1 transcripts in the lymphatic endothelial cells, sorted by flow cytometry. […]
Tail volume quantitation. Tail-volume measurements at each designated time were quantified by observers blinded to the treatment status of the subjects. Tail volumes were calculated through a digital photographic technique pre-operatively, and post-operatively (d3, d9, d14, d20, and d24), using an Olympus D520 Zoom digital camera at SHQ resolution at a fixed distance from the subject (37 cm), as previously described. […]

The test system of experiment [4] is S1P, S1pr1, Sphk1, eNOS. The experiment is described as follows: S1P signaling in mouse lymphedema. Format: in vivo. Conditions: therapy initiated 3d after surgery. As to the method:
as §1
Quantification of LTB4, PGE2 and S1P with LC-MS/MS. Briefly, LTB4, PGE2 and S1P were separated from serum with an ACE reverse phase C18 HPLC column. Formic acid 0.5% in 5 mM NH4Ac (A) and formic acid 0.5% in acetonitrile/water (9/1) (B) were used as the mobile phase. Lipids were detected with positive multiple reaction monitor (MRM) scanning at 335.16/194.80 m/z for LTB4, 351.20/189.50 m/z for PGE2 and 330.20/264.40 m/z for S1P using a Sciex API-4000 MS/MS combined with a Shimazu 20A HPLC system. The internal standard of this method was Carbutamide. The quantification limit was 1 ng/ml. The calibration range was 1-2000 ng/ml. The accuracy of the standards and control samples ranged from 88.7% to 120%.

Experiment [5] deals with acquired lymphedema surgically induced in the tails of female C57BL/6J mice. The experiment is described as follows: mouse-tail model of acquired lymphedema (tail volume, histology). Format: in vivo. As to the method: Surgical induction of experimental lymphatic vascular insufficiency. […] Briefly, a full-thickness circumferential incision of the skin was made 16 mm distal to the base of the mouse tail under anesthesia. Lymphatic trunks were ablated through controlled, limited cautery application under the surgical microscope. For surgical controls (sham animals), the skin incision alone was performed without lymphatic cautery.
as §1
Tail volume quantitation. Tail-volume measurements at each designated time were quantified by observers blinded to the treatment status of the subjects. Tail volumes were calculated through a digital photographic technique pre-operatively, and post-operatively (d3, d9, d14, d20, and d24), using an Olympus D520 Zoom digital camera at SHQ resolution at a fixed distance from the subject (37 cm), as previously described. Tail volumes were derived from the measurement of the tail diameter using the truncated cone approximation. Microlymphangiography was performed by injecting FITC-dextran (size: 2000 kDa) subcutaneously into mouse tails on post-surgery d24. Images were taken 20 minutes after injection.
Viral particles were mixed with Lipofectamine 2,000 (5% final vol/vol, Invitrogen) before injection, to increase transduction efficiency. qRT-PCR, immunofluorescence and fluorescence in situ hybridization were used to evaluate the silencing efficiency in the mouse tail skin 24d after surgery.

This is an account of results in US10500178B2, “LTB4 inhibition to prevent and treat human lymphedema” (The Board of Trustees of the Leland Stanford Junior …, priority 2015, dated 2019).

The structures appear in SMILES notation.

As for `CC(C)C[C@H](NC(=O)[C@@H](O)[C@H](N)Cc1ccccc1)C(=O)O` [bestatin, (2S)-2-[[(2S,3R)-3-amino-2-hydroxy-4-phenylbutanoyl]amino]-4-methylpentanoic acid], the “difference between ubenimex and placebo treatment arms by clinical indicia” value in experiment [1] is “statistically significant difference”. Moreover, the “serum LTB4 levels” value in experiment [2] is “effectively reduced”. In addition, in experiment [3], the “lymphatic Sphk1 and eNOS expression after treatment” value is “remaining low”; the “reversal of lymphedema (tail volume, dermal thickness, lymphatic dilation)” value is given as “failed to reverse lymphedema”. Besides, in experiment [4], the “S1P and S1pr1 levels” value is “restored”; the “Sphk1 and eNOS expression” value is reported as “normalized”. Moreover, in experiment [5] (therapies administered prior to sham and lymphedema surgery (bestatin, Ly293111 from d0, shLtb4r1 on d(−7))), the “benefit of LTB4 antagonism administered prior to surgery” value is recorded as “not beneficial”. In experiment [5] (therapies started on post-surgery d3 (late LTB4 antagonism)), the “amelioration of lymphedema (serial tail-volume measurements over 24d)” value is reported as “demonstrated therapeutic amelioration of lymphedema”. The “reversal of more established disease by delayed dosing” value in experiment [5] (therapy initiated 9d or 14d post-surgically) is given as “effective”.
